Test results reported in the supplement of paper PMC10307832.

Legend:
Assay in all cases: relative viability (nuclei count vs DMSO), 5 days (fraction); higher = more cells survive
RU-SKI 43 + Phenformin = compound: CC[C@@H](C)CNCC(=O)N1CCC2=C([C@@H]1COC3=CC=CC(=C3)C)C=CS2 [RU-SKI 43] + N=C(N)NC(=N)NCCc1ccccc1 [Phenformin] (partner 250 µM)
Summary of the method: (§1)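 Lung cancer cell lines in 1536-well plates were dosed by pin tool the day after seeding, either with one drug alone or with a fixed anchor-drug dose plus five library-drug doses (not always all listed) in √10 steps. After 5 days, cells were fixed and their nuclei stained in one step (final 0.05% Triton X-100, 1% formaldehyde, 1 ug/ml Hoechst), then counted on 4× images. Relative viability is the nuclei count in treated wells divided by that in vehicle wells. Values are medians of duplicate plates.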

MK-8033 + Tozasertib = compound: Cn1cc(-c2cnc3ccc4ccc(CS(=O)(=O)NCc5ccccn5)cc4c(=O)c3c2)cn1 [MK-8033] + Cc1cc(Nc2cc(N3CCN(C)CC3)nc(Sc3ccc(NC(=O)C4CC4)cc3)n2)n[nH]1 [Tozasertib] (partner 0.1 µM)
Summary of the method: as §1

Irinotecan + Crizotinib = compound: CCc1c2c(nc3ccc(OC(=O)N4CCC(N5CCCCC5)CC4)cc13)-c1cc3c(c(=O)n1C2)COC(=O)[C@]3(O)CC [Irinotecan] + C[C@@H](Oc1cc(-c2cnn(C3CCNCC3)c2)cnc1N)c1c(Cl)ccc(F)c1Cl [Crizotinib] (partner 1 µM)
Summary of the method: as §1

Irinotecan + Phenformin = compound: CCc1c2c(nc3ccc(OC(=O)N4CCC(N5CCCCC5)CC4)cc13)-c1cc3c(c(=O)n1C2)COC(=O)[C@]3(O)CC [Irinotecan] + N=C(N)NC(=N)NCCc1ccccc1 [Phenformin] (partner 250 µM)
Summary of the method: as §1

| Cell Line | relative viability (RU-SKI 43 + Phenformin; first compound 0.1 µM) | relative viability (RU-SKI 43 + Phenformin; first compound 0.3162 µM) | relative viability (RU-SKI 43 + Phenformin; first compound 1 µM) | relative viability (RU-SKI 43 + Phenformin; first compound 3.162 µM) | relative viability (RU-SKI 43 + Phenformin; first compound 10 µM) | relative viability (MK-8033 + Tozasertib; first compound 0.02 µM) | relative viability (MK-8033 + Tozasertib; first compound 0.06325 µM) | relative viability (MK-8033 + Tozasertib; first compound 0.2 µM) | relative viability (MK-8033 + Tozasertib; first compound 0.6325 µM) | relative viability (MK-8033 + Tozasertib; first compound 2 µM) | relative viability (Irinotecan + Crizotinib; first compound 0.6325 µM) | relative viability (Irinotecan + Crizotinib; first compound 2 µM) | relative viability (Irinotecan + Crizotinib; first compound 6.325 µM) | relative viability (Irinotecan + Crizotinib; first compound 20 µM) | relative viability (Irinotecan + Phenformin; first compound 0.6325 µM) | relative viability (Irinotecan + Phenformin; first compound 2 µM) | relative viability (Irinotecan + Phenformin; first compound 6.325 µM) | relative viability (Irinotecan + Phenformin; first compound 20 µM) |
| --- | --- | --- | --- | --- | --- | --- | --- | --- | --- | --- | --- | --- | --- | --- | --- | --- | --- | --- |
| NCI-H2228 | 0.239 | 0.407 | 0.237 | 0.329 | 0.278 | 0.199 | 0.214 | 0.168 | 0.253 | 0.214 | 0.597 | 0.518 | 0.39 | 0.433 | 0.311 | 0.347 | 0.336 | 0.27 |
| LCLC-103H | 0.318 | 0.388 | 0.435 | 0.346 | 0.343 | 0.489 | 0.556 | 0.438 | 0.55 | 0.461 | 0.834 | 0.379 | 0.397 | 0.621 | 0.344 | 0.358 | 0.256 | 0.321 |
| SK-LU-1 | 0.531 | 0.689 | 0.555 | 0.715 | 0.502 | 0.328 | 0.35 | 0.304 | 0.327 | 0.312 | 0.404 | 0.572 | 0.474 | 0.463 | 0.429 | 0.35 | 0.276 | 0.283 |
| 201T | 0.48 | 0.437 | 0.464 | 0.443 | 0.442 | 0.864 | 0.899 | 0.82 | 0.909 | 0.86 | – | 0.888 | 0.52 | 0.388 | – | 0.489 | 0.361 | 0.333 |
| NCI-H441 | 0.966 | 1.02 | 0.836 | 0.844 | 0.729 | 0.578 | 0.568 | 0.62 | 0.605 | 0.475 | 0.577 | 0.314 | 0.257 | 0.286 | 0.566 | 0.759 | 0.299 | 0.224 |
| ChaGo-K-1 | 0.474 | 0.491 | 0.548 | 0.479 | 0.488 | 0.216 | 0.227 | 0.224 | 0.218 | 0.206 | – | 0.849 | 0.47 | 0.402 | 0.413 | 0.352 | 0.191 | 0.218 |
| SW 1573 | 0.432 | 0.35 | 0.42 | 0.381 | 0.31 | 0.175 | 0.214 | 0.187 | 0.223 | 0.232 | 0.626 | 0.43 | 0.189 | 0.197 | 0.32 | 0.425 | 0.248 | 0.146 |
| HOP-62 | 0.688 | 0.547 | 0.779 | 0.789 | 0.714 | 0.406 | 0.339 | 0.359 | 0.352 | 0.344 | 0.211 | 0.108 | 0.136 | 0.159 | 0.443 | 0.532 | 0.267 | 0.204 |
| NCI-H1651 | 0.351 | 0.418 | 0.363 | 0.342 | 0.277 | 0.746 | 0.667 | 0.734 | 0.524 | 0.557 | – | 0.693 | 0.479 | 0.135 | 0.259 | 0.34 | 0.242 | 0.14 |
| CAL-12T | 0.645 | 0.65 | 0.616 | 0.596 | 0.589 | 0.317 | 0.29 | 0.28 | 0.311 | 0.266 | 0.728 | 0.766 | 0.374 | 0.326 | – | 0.668 | 0.275 | 0.186 |
| NCI-H2126 | 0.593 | 0.517 | 0.59 | 0.589 | 0.546 | 0.773 | 0.749 | 0.772 | 0.841 | 0.79 | – | 0.58 | 0.361 | 0.354 | – | 0.53 | 0.355 | 0.285 |
| NCI-H650 | 0.479 | 0.37 | 0.509 | 0.425 | 0.475 | 0.701 | 0.598 | 0.706 | 0.827 | 0.679 | 0.543 | 0.436 | 0.258 | 0.235 | 0.36 | 0.409 | 0.239 | 0.248 |
| COR-L 105 | 0.486 | 0.519 | 0.555 | 0.439 | 0.515 | 0.311 | 0.377 | 0.338 | 0.349 | 0.345 | 0.922 | 0.866 | 0.524 | 0.376 | 0.505 | 0.682 | 0.41 | 0.182 |
| LK-2 | 0.484 | 0.404 | 0.505 | 0.811 | 0.501 | 0.174 | – | 0.179 | 0.182 | 0.198 | 0.206 | 0.248 | 0.303 | 0.301 | 0.419 | 0.63 | 0.315 | 0.307 |
| NCI-H2347 | 0.34 | 0.352 | 0.544 | 0.36 | 0.383 | 0.545 | 0.574 | 0.584 | 0.552 | 0.436 | 0.571 | 0.476 | 0.556 | 0.494 | 0.284 | 0.263 | 0.298 | 0.246 |
| PC-14 | 0.646 | 0.468 | 0.841 | 0.457 | 0.651 | 0.607 | 0.539 | 0.482 | 0.594 | 0.519 | 0.873 | 0.695 | 0.2 | 0.194 | – | 0.661 | 0.242 | 0.155 |
| NCI-H2170 | 0.462 | 0.417 | 0.395 | 0.431 | 0.403 | 0.662 | 0.702 | 0.634 | 0.695 | 0.628 | 1.1 | 0.588 | 0.309 | 0.186 | 0.389 | 0.424 | 0.202 | 0.174 |
| LOU-NH91 | 0.705 | 0.673 | 0.733 | 0.715 | 0.666 | 0.653 | 0.406 | 0.644 | 0.644 | 0.678 | 0.718 | 0.658 | 0.368 | 0.36 | 0.617 | 0.639 | 0.377 | 0.391 |
